The source made the active and inactive calls. The rule behind the calls is not given here.
Test system: Human immunodeficiency virus 1
Test: Compound was tested for antiretroviral activity against HIV; compound found active.
Type: functional, organism-based

Compound: O=c1[nH]cnc2c1ncn2[C@H]1CC[C@@H](CO)O1
- Activity: Active

Reference: ChEMBL document CHEMBL1131736, “Lipase-catalyzed protection of the hydroxy groups of the nucleosides inosine and 2'-deoxyinosine: a new chemoenzymatic synthesis of the antiviral drug 2',3'-dideoxyinosine” (Bioorg Med Chem Lett, 1999)
